Measurements: US20130317222A1, “SOLID FORMS OF GYRASE INHIBITOR (R)-1-ETHYL-3-[5-[2-(1-HYDROXY-1-METHYL-ETHYL)PYRIMIDIN-5-YL]-7-(TETRAHYDROFURAN-2-YL]-1H-BENZIMIDAZOL-2-YL]UREA” (Vertex Pharmaceuticals Incorporated, priority 2011, published 2013)
Where a name gives a salt, the structure may show the parent alone.

How the values were obtained:
[1] = system: β-haemolytic streptococci (Groups A, B, C and G); assay: MIC, micro dilution broth method (Protocol 1); type: cell-based; conditions: 28 isolates tested
Neisseria gonorrhoeae = assay: MIC, agar dilution method (Protocol 3); type: cell-based
Description: (§1) Plate Pouring: • 1. Prepared 100× drug stocks of each test compound as described in Table 1A. Used a 15 mL centrifuge tube, added 100 uL of each drug stock to 10 mL of molten agar (cooled to 55° C. in water bath). Mixed by inverting tube 2-3× then pour into individually labeled 60×15 mm Petri dish. • 2. […] Poured 4 drug free plates: 2 as positive control, 2 as aerobic control. • 4. Allowed plates to dry. Used same day or stored overnight at RT or stored up to 3 days at 4° C. • 5. Plates were labeled accordingly for drug concentration and strain placement. Plate Inoculation (Performed in Biosafety Cabinet): • 1. Streaked each strain onto individual agar plates as described above. Incubated for required time and environmental condition (i.e. anaerobic, microaerophilic, etc). • 2. Used direct colony suspension method to suspend loopfuls of freshly streaked cells into 4 mL 0.9% […] and vortexed. • 3. Adjusted suspension to O.D.600 0.05 (5×10e7 cfu/mL). Vortexed to mix. • 4. Transferred 0.2 mL of adjusted, mixed cultures to a 96 well plate. When ≦5 strains were tested, all strains were lined together in a single row. When testing >5 strains, transfered strains into plate with no more that 5 strains in a single row. This was necessary to fit on the small plates. • 5. […] The former and latter served as growth and inoculation controls. Incubated one plate from each set of drug-free controls under required atmospheric conditions with MIC plates and one set aerobically to test for contamination with aerobic bacteria. Aerobic culture was negative for growth when working with strict anaerobe or microaerophilic strain. Some growth was visible with N. gonorrhoeae. • 6. Allowed inoculum to dry (for as short a time as necessary), then placed upside down in GasPak with appropriate number of sachets and incubate. • 7. Neisseria spp. were incubated at 37° C. in a5% CO2 environment for 24 h. MIC Determination: Examined the test plates after the correct incubation time and read the MIC endpoint at the concentration where a marked reduction occurred in the appearance of growth on the test plate as compared to that of growth on the positive control plates. [table]

Neisseria meningitidis = assay: MIC, agar dilution method (Protocol 3); type: cell-based; conditions: 12 isolates tested
Description: as §1

N. nova = assay: MIC determination procedure for Mycobacterium species (Protocol 4); type: cell-based; conditions: N. nova 10
Moraxella catarrhalis = assay: MIC against Gram negatives, microdilution broth method (Protocol 2)
Bacillus cereus = assay: MIC, micro dilution broth method (Protocol 1); type: cell-based
Clostridium difficile = assay: MIC, agar dilution method (Protocol 3); type: cell-based
M. tuberculosis = assay: MIC determination procedure for Mycobacterium species (Protocol 4); type: cell-based
Klebsiella pneumoniae = assay: MIC against Gram negatives, microdilution broth method (Protocol 2)
Proteus mirabilis = assay: as above
Staphylococcus aureus = assay: MIC, micro dilution broth method (Protocol 1); type: cell-based
N. asteroids = assay: MIC determination procedure for Mycobacterium species (Protocol 4); type: cell-based; conditions: N. asteroids 2039
Escherichia coli = assay: MIC against Gram negatives, microdilution broth method (Protocol 2)
Enterobacter cloacae = assay: as above
Nocardia caviae = assay: MIC determination procedure for Mycobacterium species (Protocol 4); type: cell-based; conditions: Nocardia caviae 2497
Pseudomonas aeruginosa = assay: MIC against Gram negatives, microdilution broth method (Protocol 2)
Enterococcus faecium = assay: MIC, micro dilution broth method (Protocol 1); type: cell-based
Clostridium perfringens = assay: microbe, parasite or virus in culture; type: cell-based
Enterococcus faecalis = assay: MIC, micro dilution broth method (Protocol 1); type: cell-based
Streptococcus pneumoniae = assay: MIC, micro dilution broth method (Protocol 1); type: cell-based
[2] = system: Bacteroides and Parabacter spp.; assay: MIC, agar dilution method (Protocol 3); type: cell-based; conditions: 26 isolates tested
Acinetobacter baumannii = assay: MIC against Gram negatives, microdilution broth method (Protocol 2)
Bacillus subtilis = assay: MIC, micro dilution broth method (Protocol 1); type: cell-based
[3] = system: Staphylococcus epidermidis; assay: MIC, micro dilution broth method (Protocol 1); type: cell-based; conditions: Staphlococcus epidermidis, 35 isolates tested
Peptostreptococcus spp. = assay: MIC, agar dilution method (Protocol 3); type: cell-based; conditions: 11 isolates tested
Bacteroides fragilis = assay: MIC, agar dilution method (Protocol 3); type: cell-based; conditions: 25 isolates tested
Haemophilus influenzae = assay: MIC against Gram negatives, microdilution broth method (Protocol 2); type: cell-based
Source text: The specific protocols used were as follows:
Drug Dilutions, Inoculation, MIC Determination: • 1. […] All MICs were done in duplicate. • 6.

Prevotella spp. = assay: MIC, agar dilution method (Protocol 3); type: cell-based; conditions: 13 isolates tested
[4] = system: Mycobacterium tuberculosis; assay: Mycobacterium tuberculosis Serum Shift MIC Assay (Protocol 5); type: cell-based
Source text: Protocol #5. Protocol for Mycobacterium tuberculosis Serum Shift MIC Assay
Media Prep: • 1. […] It was important that all media and supplements were sterilized prior to MICs. • 2. Prepared all media below and inoculated as described in next section. Tested all compounds against Mtb using each media. • a. 7H9+0.2% glycerol+10% OADC (“standard” MIC media). • b. 7H9+0.2% glycerol+2 g/L dextrose+0.85 g/L NaCl+0.003 g/L catalase (0% FBS). • c. 2×7H9+0.2% glycerol+2 g/L dextrose+0.85 g/L NaCl+0.003 g/L catalase combined with equal volume Fetal Bovine Serum (50% FBS).
Inoculum Prep: • 1. […] Typically plates were two to three weeks of age when used for this assay due to the slow growth of this organism in culture. • 2. Vortexed well, then sonicated in water bath for 30 sec providing a suspension of ˜10^8 cells/ml. […] Prepared inoculum in each of the three media formulations by diluting the BBL Prompt suspension 1/200 (for example: transferred 0.2 ml of cells to 40 ml of medium) to obtain a starting cell density of ˜10^6 cells/ml. • 4.
Drug Dilutions, Inoculation, MIC Determination: • 1. […]
After 24 hours the fluorescence of each well was measured at Excitation 492 nm, Emission 595 nm.
Percent inhibition by a given compound was calculated as follows: Percent inhibition=100−([well fluorescence-average background fluorescence]/[DMSO control−average background fluorescence]×100).

Fusobacterium spp. = assay: MIC, agar dilution method (Protocol 3); type: cell-based; conditions: 16 isolates tested
Mycobacterium avium = assay: MIC determination procedure for Mycobacterium species (Protocol 4); type: cell-based
[5] = Neisseria gonorrhoeae, 13 isolates tested
[6] = M. tuberculosis Erdman ATCC 35801
[7] = Staphylococcus aureus, 67 isolates tested
[8] = Enterococcus faecalis, 34 isolates tested
[9] = Streptococcus pneumoniae, 67 isolates tested
[10] = Haemophilus influenzae, 55 isolates tested

CCNC(=O)Nc1nc2cc(-c3cnc(C(C)(C)O)nc3)cc([C@H]3CCCO3)c2[nH]1 [Compound 13, methanesulfonic acid salt of 1-ethyl-3-[5-[2-(1-hydroxy-1-methyl-ethyl)pyrimidin-5-yl]-7-[(2R)-tetrahydrofuran-2-yl]-1H-benzimidazol-2-yl]urea]
MIC90 [1]: 0.25 µg/mL | MIC Range [1]: 0.06 to 0.5 µg/mL | MIC (Neisseria gonorrhoeae; Neisseria gonorrhoeae ATCC 35541): 1.3 µg/mL | MIC (Neisseria gonorrhoeae; Neisseria gonorrhoeae ATCC 49226): 2.3 µg/mL | MIC90 (Neisseria gonorrhoeae; [5]): 1 µg/mL | MIC Range (Neisseria gonorrhoeae; [5]): 0.5 to 1 µg/mL | MIC90 (Neisseria meningitidis): 0.12 µg/mL | MIC Range (Neisseria meningitidis): 0.015 to 0.25 µg/mL | MIC (N. nova): 8 µg/mL | MIC90 (Moraxella catarrhalis): 0.12 µg/mL | MIC Range (Moraxella catarrhalis; 26 isolates tested, Protocol 2): 0.015 to 0.12 µg/mL | MIC (Bacillus cereus; Bacillus cereus ATCC 10987): 0.5 µg/mL | MIC (Bacillus cereus; Bacillus cereus ATCC 14579): 0.5 µg/mL | MIC90 (Clostridium difficile; Clostridioides difficile, Clostridium difficile, 16 isolates tested): 1 µg/mL | MIC (Clostridium difficile; Clostridium difficile ATCC BAA-1382): 1 µg/mL | MIC Range (Clostridium difficile; Clostridium difficile, 16 isolates tested): 0.5 to 16 µg/mL | MIC (M. tuberculosis; [6]): 0.25 µg/mL | MIC (M. tuberculosis; M. tuberculosis H37Rv ATCC 25618): 0.37 µg/mL | MIC90 (Klebsiella pneumoniae): > 8 µg/mL | MIC90 (Proteus mirabilis): > 8 µg/mL | MIC (Staphylococcus aureus; Staphylococcus aureus ATCC 29213): 0.13 µg/mL | MIC (Staphylococcus aureus; Staphylococcus aureus ATCC 29213 GyrB T173I): 1.29 µg/mL | MIC (Staphylococcus aureus; Staphylococcus aureus ATCC 29213 with Human Serum): 0.31 µg/mL | MIC (Staphylococcus aureus; Staphylococcus aureus ATCC 29213 with Mouse Serum): 2 µg/mL | MIC (Staphylococcus aureus; Staphylococcus aureus ATCC 29213 with Rat Serum): 0.53 µg/mL | MIC90 (Staphylococcus aureus; [7]): 0.25 µg/mL | MIC Range (Staphylococcus aureus; [7]): 0.03 to 0.5 µg/mL | MIC (N. asteroids): 8 µg/mL | MIC90 (Escherichia coli): > 8 µg/mL | MIC90 (Enterobacter cloacae): > 8 µg/mL | MIC (Nocardia caviae): 2 µg/mL | MIC90 (Pseudomonas aeruginosa): > 8 µg/mL | MIC90 (Enterococcus faecium; Enterococcus faecium): 0.5 µg/mL | MIC (Enterococcus faecium; Enterococcus faecium ATCC 49624, Protocol 1): 0.25 µg/mL | MIC (Enterococcus faecium; Enterococcus faecium ATCC 49624 with Laked Horse Blood, Protocol 1): 0.39 µg/mL | MIC Range (Enterococcus faecium; Enterococcus faecium, 33 isolates tested, Protocol 1): 0.12 to 0.5 µg/mL | MIC90 (Clostridium perfringens): 0.5 µg/mL | MIC (Enterococcus faecalis; Enterococcus faecalis ATCC 29212, with Laked Horse Blood): 0.081 µg/mL | MIC90 (Enterococcus faecalis; [8]): 0.25 µg/mL | MIC Range (Enterococcus faecalis; [8]): 0.03 to 0.25 µg/mL | MIC (Streptococcus pneumoniae; Streptococcus pneumoniae ATCC 10015, with Laked Horse Blood): 0.022 µg/mL | MIC90 (Streptococcus pneumoniae; [9]): 0.06 µg/mL | MIC Range (Streptococcus pneumoniae; [9]): 0.015 to 0.06 µg/mL | MIC90 [2]: > 16 µg/mL | MIC90 (Acinetobacter baumannii): > 8 µg/mL | MIC (Bacillus subtilis; Bacillus subtilis (168) ATCC 6051): > 8 µg/mL | MIC (Bacillus subtilis; Bacillus subtilis ATCC 6638): > 8 µg/mL | MIC Range [3]: 0.03 to 0.25 µg/mL | MIC90 ([3]; Staphylococcus epidermidis): 0.12 µg/mL | MIC90 (Peptostreptococcus spp.): > 16 µg/mL | MIC90 (Bacteroides fragilis): > 16 µg/mL | MIC (Haemophilus influenzae; Haemophilus influenzae (Rd1 KW20) ATCC 51907): 2.5 µg/mL | MIC (Haemophilus influenzae; Haemophilus influenzae ATCC 49247): 1 µg/mL | MIC (Haemophilus influenzae; Haemophilus influenzae Rd0894 (AcrA-)): 0.14 µg/mL | MIC90 (Haemophilus influenzae; [10]): 2 µg/mL | MIC Range (Haemophilus influenzae; [10]): 0.25 to 8 µg/mL | MIC90 (Prevotella spp.): > 16 µg/mL | MIC [4, 6]: 0.045 µg/mL | MIC ([4]; M. tuberculosis Erdman ATCC 35801 with Mouse Serum): 2 µg/mL | MIC90 (Fusobacterium spp.): 2 µg/mL | MIC Range (Fusobacterium spp.): 1 to 4 µg/mL | MIC (Mycobacterium avium; M. avium 3404.4): 0.94 µg/mL | MIC (Mycobacterium avium; M. avium Far): 0.94 µg/mL | MIC (Mycobacterium avium; Mycobacterium avium 103): 0.47 µg/mL
